From patent US5204361A, “Method for treating laminitis in equine livestock” (priority 1988, dated 1993)

Assays:
Format in all cases: cell-based, horse
[1] = tested on: caecal/large colon digesta; assay: Experiment 2 Part 2: in vitro fermentation with cornstarch, antibiotics at or below 2 ug/ml; settings: for L-lactate / pH: cornstarch 0.75 g per flask, 16 hours, mean
Method: (§1) Digesta was taken from the caecum and large colon from recently slaughtered animals and was filtered through nylon gauze (approximately 60 micron apertures). The fluid was diluted 1:1 with a buffer solution described by Bales et al. (1976) and incubated with wheat "corn starch" (with or without antibiotics) at 37° for 16 to 20 hours. Aliquots of digesta diluted with buffer (50 ml) were added to 100 ml conical flasks. The flasks were flushed with carbon dioxide before being sealed with a tightly fitting rubber cap. A 21 gauge needle was inserted through the rubber seal in order to allow gas to escape during the fermentation. On removal from the incubator sub-samples were immediately taken to measure L-lactic acid concentration and pH. For each treatment or level of antibiotic three replicate incubation flasks were used.
Incubation flasks were set up as described above with cornstarch (0.75 g) containing virginiamycin, flavomycin or zinc-bacitracin a levels to provide: 0, 0.25, 0.5, 1.0 and 2 ug antibiotic/ml incubation mixture. These flasks were incubated for 16 hours. Flasks were also set up with 0.75 g cornstarch and no antibiotic equipped with a tap and sampling tube in order to take samples from the incubation vessels at various times during the fermentation. Samples were taken at the start of the incubation and at 2, 4, 6, 8, 12 and 24 h. These were analysed for L-lactate concentration and pH.

[2] = tested on: caecal/large colon digesta; assay: Experiment 2 Part 5: efficacy of tylosin relative to virginiamycin, digesta incubated with glucose; settings: digesta incubated with glucose, 37°, 20 hours, mean
Method: An in vitro fermentation experiment was conducted to determine the efficacy of tylosin relative to virginiamycin. Samples of strained caecal and large colon digesta (16 ml) were incubated with glucose solution (60 ug/ml) (4 ml) and varying concentrations of either tylosin or virginiamycin representing […], 2.0, 4.0 ug of tylosin or virginiamycin per ml. The 25 ml containers were incubated at 37° for 20 hours. There were three replicates per treatment.

[3] = tested on: mixed caecal/large colon digesta; assay: Experiment 2 Part 1: in vitro fermentation of digesta with cornstarch, avoparcin, virginiamycin, flavomycin 2-32 ug/ml; design: Lactate / Total VFA: unit not given here; settings: for pH / Acet:Prop / Lactate / Total VFA: mean
Method: as §1
A range of concentrations of cornstarch providing: 0, 5, 10, 15 and 20 mg/ml diluted digesta (i.e. from 0 to 1 g cornstarch/conical flask) were tested to determine the amount required to produce a pattern of fermentation with high levels of lactic acid. Flasks were also prepared with cornstarch mixed with antibiotic premixes to provide 15 mg cornstarch/ml incubation mixture and 0, 2, 4, 8, 16 and 32 ug of avoparcin, virginiamycin or flavomycin per ml incubation mixture. After approximately 16 hour incubation at 37° samples were taken to measure lactic acid, VFA and pH.

[4] = tested on: caecal and large colon contents; assay: Experiment 2 Part 3: in vitro screening at 2 ug/ml in digesta of four horses; settings: for pH / L-lactate: 2 ug antibiotic/ml, 15 mg cornstarch/ml, 20 hour incubation
Method: as §1
All four of the antibiotics, listed above, were incubated as previously described to provide 2 ug antibiotic and 15 mg cornstarch per ml incubation mixture. There was one flask per test and each antibiotic was incubated in digesta from both the caecum and the large colon taken from each of 4 animals. Samples of incubation fluid were taken following a 20 hour incubation and were analysed for L-lactate and pH.

[5] = tested on: caecal and large colon digesta; assay: Experiment 2 Part 4: digesta of virginiamycin-fed horses incubated with cornstarch; settings: for L-lactate, incubated digesta / pH, incubated digesta: digesta of virginiamycin-fed horses incubated 20 hours with cornstarch 15 mg/ml, n = 5, mean
Method: as §1
A total of ten horses were used for this experiment. Five horses were offered 5 kg of a pelleted mixture (ground wheat 92.5%, ground lucerne chaff 5% and `Stafac 20` 2.5% to supply approximately 2.5 g virginiamycin. A further 5 horses were offered the same feed but without virginiamycin. Samples of caecal and large colon digesta were taken for analysis of pH, VFA, virginiamycin and L-lactate. Samples were also prepared as described above with buffer solution and incubated (1 flask/sample) with cornstarch (15 mg/ml diluted digesta). Following 20 hours incubation samples were taken for analysis of L-lactate and pH.

[6] = tested on: caecal/large colon digesta; assay: Experiment 2 Part 6: therapeutic use, virginiamycin added after the start of fermentation; settings: virginiamycin 10 ug/ml added at 4, 8 or 12 h; total 24 h; FIG. 6
Method: An in vitro experiment was conducted to determine whether by adding the virginiamycin after the start of fermentation of caecal digesta and glucose subsequent lactic acid production could still be prevented.
Samples of caecal/large colon digesta were prepared as described above (Part 5) but with the following treatments (3 replicates/treatment):
(a) Control--incubated for 24 h;
(b) Sampled after 4 h and virginiamycin added before incubating for a total of 24 h;
(c) As for (b) but with sampling etc at 8 h; and
(d) As for (b) but sampling etc after 12 h. Virginiamycin was added to provide 10 ug/ml.

[7] = antibiotic 2 μg/ml, cornstarch 15 mg/ml, approx 16 hour incubation
[8] = antibiotic 4 μg/ml, cornstarch 15 mg/ml, approx 16 hour incubation
[9] = antibiotic 8 μg/ml, cornstarch 15 mg/ml, approx 16 hour incubation
[10] = antibiotic 16 μg/ml, cornstarch 15 mg/ml, approx 16 hour incubation
[11] = antibiotic 32 μg/ml, cornstarch 15 mg/ml, approx 16 hour incubation

## virginiamycin
[1]; antibiotic 0.25 μg/ml
  L-lactate: 28.4 mmol/L
  pH: 5.45
[1]; antibiotic 0.50 μg/ml
  L-lactate: 28.8 mmol/L
  pH: 5.44
[1]; antibiotic 1.00 μg/ml
  L-lactate: 3.2 mmol/L
  pH: 5.66
[1]; antibiotic 2.00 μg/ml
  L-lactate: 1.4 mmol/L
  pH: 5.78
[1]; at concentrations of 1 ug/ml
  control of lactic acid compared with the other antibiotics: best control of lactic acid
[2]; antibiotic 0.50 μg/ml
  L-lactate: 25 mmol/L
[2]; antibiotic 2.00 μg/ml
  L-lactate: 11.0 mmol/L
[2]; antibiotic 4.00 μg/ml
  L-lactate: 7.7 mmol/L
[3]; Experiment 2 screening programme as a whole
  control of lactic acid build up: consistent and effective control
[3]; antibiotic 2 μg/ml, cornstarch 15 mg/ml, approx 16 hour incubation at 37°
  pH: 6.57
[3]; [7]
  Acet:Prop: 2.9
  Lactate: 0.2
  Total VFA: 93.2
[3]; [8]
  Acet:Prop: 3.1
  Lactate: 0.2
  Total VFA: 80.8
  pH: 6.63
[3]; [9]
  Acet:Prop: 3.2
  Lactate: 0.2
  Total VFA: 79.7
  pH: 6.66
[3]; [10]
  Acet:Prop: 3.8
  Lactate: 0.0
  Total VFA: 71.3
  pH: 6.64
[3]; [11]
  Acet:Prop: 3.7
  Lactate: 0.1
  Total VFA: 87.1
  pH: 6.66
[3]; at concentrations as low as 2 g/ml, cornstarch 15 mg/ml
  control of lactic acid build-up: total control
[4]; Horse 1
  pH: 5.40
[4]; Horse 1, mean of caecum and large colon
  L-lactate: 0.3 mmol/L
[4]; Horse 2
  pH: 4.94
[4]; Horse 2, mean of caecum and large colon
  L-lactate: 34.1 mmol/L
[4]; Horse 3
  pH: 5.17
[4]; Horse 3, mean of caecum and large colon
  L-lactate: 7.6 mmol/L
[4]; Horse 4
  pH: 5.27
[4]; Horse 4, mean of caecum and large colon
  L-lactate: 12.3 mmol/L
[4]; Mean of 4 horses
  L-lactate: 13.6 mmol/L
  pH: 5.19
[4]; all horses, 2 ug/ml, p,0.01
  pH of the incubation fluid relative to unmedicated control: significant increase
[4]; all horses, 2 ug/ml, p<0.001
  L-lactate concentration relative to unmedicated control: significant reduction
[5]; Caecum
  L-lactate, incubated digesta: 5.5 mmol/L
  pH, incubated digesta: 5.2
[5]; Colon
  L-lactate, incubated digesta: 1.8 mmol/L
  pH, incubated digesta: 5.3
[5]; digesta from animals that had consumed virginiamycin, p<0.001
  lactic acid produced following incubation with cornstarch versus controls: significantly less
[5]; digesta from animals that had received virginiamycin
  pH in the incubated digesta versus controls: higher pH
[6]
  time after the start of glucose fermentation at which addition of virginiamycin still prevents the build up of lactic acid: up to 8 h
